These results are taken from US20260116920A1, “HUMAN TRANSFERRIN RECEPTOR BINDING PEPTIDE” (PEPTIDREAM INC., priority 2021, published 2026).

Positions of bridges follow the written chain, without caps; N, C: chain ends. Non-standard residues stand in square brackets, D forms with d. Residues, ends and D or L forms follow the SMILES beside them. *: point of attachment. Trp(1-CH2COOH) = N[C@@H](Cc1cn(CC(=O)O)c2ccccc12)C(=O)O; Phe(3-COOH) = N[C@@H](Cc1cccc(C(=O)O)c1)C(=O)O; NMePhe(3-Cl) = CN[C@@H](Cc1cccc(Cl)c1)C(=O)O; NMeY = CN[C@@H](Cc1ccc(O)cc1)C(=O)O; PEG4 = NCCOCCOCCOCCOCCC(=O)O; Carboxymethyl = O=C(O)C*; NHCH2CH2OMe = COCCN*

T1 sequence (P02786 89-760 limits assumed): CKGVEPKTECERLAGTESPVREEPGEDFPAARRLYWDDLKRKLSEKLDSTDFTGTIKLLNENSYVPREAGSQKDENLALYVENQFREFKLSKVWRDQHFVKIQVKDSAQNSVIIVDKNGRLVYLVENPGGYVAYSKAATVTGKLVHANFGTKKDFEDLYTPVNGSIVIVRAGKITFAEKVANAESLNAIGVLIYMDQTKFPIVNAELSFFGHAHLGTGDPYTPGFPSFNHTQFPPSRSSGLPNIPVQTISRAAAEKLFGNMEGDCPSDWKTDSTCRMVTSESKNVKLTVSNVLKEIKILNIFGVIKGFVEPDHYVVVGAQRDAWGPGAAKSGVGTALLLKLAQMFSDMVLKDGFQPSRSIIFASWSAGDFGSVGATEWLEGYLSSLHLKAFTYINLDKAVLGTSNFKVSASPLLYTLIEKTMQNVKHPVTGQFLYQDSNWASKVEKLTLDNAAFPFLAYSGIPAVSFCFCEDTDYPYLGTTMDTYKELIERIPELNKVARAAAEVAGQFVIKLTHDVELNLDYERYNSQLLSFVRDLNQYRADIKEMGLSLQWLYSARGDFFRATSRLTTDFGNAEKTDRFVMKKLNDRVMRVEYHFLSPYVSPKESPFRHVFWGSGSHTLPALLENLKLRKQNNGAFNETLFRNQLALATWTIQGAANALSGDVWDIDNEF

One assay has as its target T1, human transferrin receptor (hTfR) (Homo sapiens, UniProt P02786).
T1 construct: made in house
Briefly: Evaluation of molecular interaction between transferrin receptor (hTfR) and peptide using surface plasmon resonance (SPR). To be noted: KD class for binding to hTfR by SPR; peptide with the linker shown in the same line; 'low signal indicates no activity'; read-out: SPR. The class given is binding. In outline:
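Binding kinetics of peptides to immobilized recombinant human TfR dimer were measured by SPR at 5–100 nM in a single-cycle format, with KD obtained from curve fitting.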
On the technique in general: Surface plasmon resonance follows binding to a sensor surface in real time, without labels.
On to `CC[C@H](C)[C@@H]1NC(=O)[C@H](Cc2ccc(O)cc2)NC(=O)[C@H](Cc2ccc(O)cc2)NC(=O)[C@H](C)NC(=O)[C@H](Cc2c[nH]c3ccccc23)NC(=O)[C@H](C(C)C)NC(=O)[C@H](Cc2ccccc2)N(C)C(=O)[C@H](C(C)C)NC(=O)[C@H](C)NC(=O)CSC[C@@H](C(=O)NCC(=O)N[C@@H](CCCCN=[N+]=[N-])C(N)=O)NC(=O)[C@H](Cc2ccc(O)cc2)N(C)C(=O)[C@H](Cc2ccc(O)cc2)NC(=O)[C@H](CCCNC(=N)N)NC(=O)[C@H](CCCNC(=N)N)NC(=O)[C@H]([C@@H](C)CC)NC1=O` [894_3160], for which the Kd is 100 to 1000 nM. Take `CC[C@H](C)[C@@H]1NC(=O)[C@H](Cc2ccc(OCC(=O)O)cc2)NC(=O)[C@H](Cc2ccc(O)cc2)NC(=O)[C@H](CC(N)=O)NC(=O)[C@H](Cc2cn(CC(=O)O)c3ccccc23)NC(=O)[C@H](C(C)C)NC(=O)[C@H](Cc2cccc(Cl)c2)N(C)C(=O)[C@H](C(C)C)NC(=O)[C@H](C)NC(=O)CSC[C@@H](C(=O)NCCOCCOCCOCCOCCC(N)=O)NC(=O)[C@H](Cc2ccc(O)cc2)N(C)C(=O)[C@H](Cc2ccccc2)NC(=O)[C@H](CCC(=O)NCCO)NC(=O)[C@H](CCCNC(=N)N)NC(=O)[C@H]([C@@H](C)CC)NC1=O` [894_0381]: the Kd is 1 to 100 nM.

Take `CC[C@H](C)[C@@H]1NC(=O)[C@H](Cc2ccc(OCC(=O)O)cc2)NC(=O)[C@H](Cc2ccc(O)cc2)NC(=O)[C@H](CC(N)=O)NC(=O)[C@H](Cc2cn(CC(=O)O)c3ccccc23)NC(=O)[C@H](C(C)C)NC(=O)[C@H](Cc2cccc(Cl)c2)N(C)C(=O)[C@H](C(C)C)NC(=O)[C@H](C)NC(=O)CSC[C@@H](C(=O)NCCOCCOCCOCCOCCC(N)=O)NC(=O)[C@H](Cc2ccc(O)cc2)N(C)C(=O)[C@H](Cc2cccc(C(=O)O)c2)NC(=O)[C@H](CCC(=O)NCCOC)NC(=O)[C@H](CCC(=O)NCCOC)NC(=O)[C@H]([C@@H](C)CC)NC1=O` [894_0329] ({CH2CO}-AV[NMePhe(3-Cl)]V[Trp(1-CH2COOH)]NYY(Carboxymethyl)IIE(NHCH2CH2OMe)E(NHCH2CH2OMe)[Phe(3-COOH)][NMeY]C[PEG4]-NH2; thioether N-15): the Kd is 1 to 100 nM. Same read-out and setting: to `CC[C@H](C)[C@@H]1NC(=O)[C@H](Cc2ccc(OC)cc2)NC(=O)[C@H](Cc2ccc(O)cc2)NC(=O)[C@H](CC(N)=O)NC(=O)[C@H](Cc2c[nH]c3ccc(Cl)cc23)NC(=O)[C@H](C(C)C)NC(=O)[C@H](Cc2ccc(F)cc2)N(C)C(=O)[C@H](C(C)C)NC(=O)[C@H](C)NC(=O)CSC[C@@H](C(=O)NCC(=O)N[C@@H](CCCCN=[N+]=[N-])C(N)=O)NC(=O)[C@H](Cc2ccc(O)cc2)N(C)C(=O)[C@H](Cc2ccccc2)NC(=O)[C@@H](CCCNC(=N)N)NC(=O)[C@H](CCCNC(=N)N)NC(=O)[C@H]([C@@H](C)CC)NC1=O` [894_3157] belongs 100 to 1000 nM.

The assay is the same for the next values; noted with them: surface plasmon resonance, binding to hTfR; KD class symbol; read-out: SPR (KD value).
`CC[C@H](C)[C@@H]1NC(=O)[C@H](Cc2ccc(OCC(=O)O)cc2)NC(=O)[C@H](Cc2ccc(O)cc2)NC(=O)[C@H](CC(N)=O)NC(=O)[C@H](Cc2c[nH]c3ccccc23)NC(=O)[C@H](C(C)C)NC(=O)[C@H](Cc2ccccc2)N(C)C(=O)[C@H](C(C)C)NC(=O)[C@H](C)NC(=O)CSC[C@@H](C(=O)NCC(=O)N[C@H](CCC(=O)O)C(=O)N[C@H](CCC(=O)O)C(=O)N[C@H](CCC(=O)O)C(=O)N[C@H](CO)C(=O)N[C@H](CO)C(=O)N[C@@H](CCCCN=[N+]=[N-])C(N)=O)NC(=O)[C@H](Cc2ccc(O)cc2)N(C)C(=O)[C@H](Cc2ccc(O)cc2)NC(=O)[C@H](CCCNC(=N)N)NC(=O)[C@H](CCCNC(=N)N)NC(=O)[C@H]([C@@H](C)CC)NC1=O` [compound 41]: the Kd is 1 to 100 nM. Still for that read-out and setting: to `CC[C@H](C)[C@@H]1NC(=O)[C@H](Cc2ccc(OCC(=O)O)cc2)NC(=O)[C@H](Cc2ccc(O)cc2)NC(=O)[C@H](CC(N)=O)NC(=O)[C@H](Cc2cn(CC(=O)O)c3ccccc23)NC(=O)[C@H](C(C)C)NC(=O)[C@H](Cc2cccc(Cl)c2)N(C)C(=O)[C@H](C(C)C)NC(=O)[C@H](C)NC(=O)CSC[C@@H](C(=O)NCCOCCOCCOCCOCCC(N)=O)NC(=O)[C@H](Cc2ccc(O)cc2)N(C)C(=O)[C@H](Cc2cccc(C(=O)O)c2)NC(=O)[C@H](CCCNC(=N)N)NC(=O)[C@H](CCC(N)=O)NC(=O)[C@H]([C@@H](C)CC)NC1=O` [compound 136] belongs 1 to 100 nM.
